Positions of bridges follow the written chain, without caps; N, C: chain ends. Residues, ends and D or L forms follow the SMILES beside them.
Tests used:
[1] = Retention time of peptide in HPLC (hydrophobicity); type: physicochemical; details: used as measure of hydrophobicity (order Z-d14CR > Z-d14CF > Z-d13 > Z-d14CFR > Z-d14C); column and gradient not given
[2] = tested on: E. coli ATCC25922 and S. aureus ATCC29213; assay: Cytoplasmic membrane depolarization, DiSC3(5); type: cell-based; details: 2 MIC to 1/4 MIC; fluorescence 622/670 nm, 30 min
Experimental: The ability of Z-d14CFR to disrupt inner cytoplasmic membrane potential of E. coli ATCC25922 and S. aureus ATCC29213 was monitored using 3,3-dipropylthiadicarbocyanine iodide DiSC3(5) (Macklin, D864435, Shanghai, China) as previous mentioned. The bacteria were washed and resuspended with 5 mM HEPES, pH 7.4, containing 5 mM glucose and 100 mM KCl buffer into 1 × 10^6 CFU/mL. DiSC3(5) was subsequently added and incubated at 37 °C in the dark for 15 min until the fluorescence had stabilized. Z-d14CFR in a final concentration of 2 MIC, 1 MIC, 1/2 MIC and 1/4 MIC was added to the mixture. The fluorescence intensity was continuously monitored for 30 min by an excitation wavelength of 622 nm and an emission wavelength of 670 nm.

S. aureus ATCC29213 [3] = assay: Cytoplasmic membrane integrity, SYTO 9/PI flow cytometry; type: cell-based; details: 2 MIC, 3 h, flow cytometry, 10,000 cells, PBS 0.4%
Experimental: (§1) E. coli ATCC25922 and S. aureus ATCC29213 (OD600 = 0.6) were washed and diluted into 1 × 10^8 CFU/mL in sterile saline. The cells were treated with Z-d14CFR in the final concentration of 2 MIC for 3 h. Following that, the same volume of a mixture contains SYTO 9 dye and PI (Thermo Fisher, Waltham, MA, USA) (v/v, 1:1) was added to bacteria and incubated at 37 °C in the dark for 15 min. The bacteria were washed with saline to remove the unbound dye and then observed with a Nikon A1 confocal laser scanning microscope.
(§2) In order to further determine the percentage of PI-positive cells, the data of 10,000 cells were collected and analyzed by BD LSRFortessa flow cytometer.

E. coli ATCC25922 [4] = assay: as above; type: cell-based; details: 2 MIC, 3 h, flow cytometry, 10,000 cells, PBS 0%
Experimental: as §1, §2

S. aureus ATCC29213 [5] = assay: Time-killing assay; type: cell-based; details: 2 MIC, CFU counts at 0-24 h
Experimental: (§3) E. coli ATCC25922 and S. aureus ATCC29213 in the mid-logarithmic phase were diluted into 1 × 10^6 CFU/mL with 10 mM PBS, and incubated with 10 μL Z-d14CFR in a final concentration of 2 MIC. At 0, 4, 8, 12, 16, 20, and 24 h, the mixture was serial diluted and spread onto LB agar plates. After 16 h of cultivation, the CFU number of bacteria was counted to evaluate the ability of peptide to kill bacteria. The bacteria treated with 10 mM PBS as a negative control, and meanwhile incubated with 2 MIC gentamicin or polymyxin B as a positive control.

E. coli ATCC25922 [6] = assay: Time-killing assay; type: cell-based; details: 2 MIC, CFU counts at 0-24 h
Experimental: as §3

E. coli CAU201919 = assay: Murine model of mastitis induced by MDR E. coli; type: in vivo, mice; details: Z-d14CFR 25 μg or gentamicin 10 μg via milk duct at 3 h and 15 h, 27 h post-infection
Text: In this study, the therapeutic effects of Z-d14CFR on MDR bacterial infection in vivo was verified by a murine mastitis model. E. coli CAU201919 was used to establish the mastitis model because it is highly pathogenic compared with other bacteria and is resistant to various antibiotics, such as ampicillin, amoxicillin and cefazolin. In brief, 45 Crl:CD1 female mice at 17–18 days of gestation were purchased from Beijing Vital River Laboratory Animal Technology Co., Ltd. (Beijing, China) and kept in the Laboratory Animal Center of China Agricultural University (Beijing, China). At 72 h post-partum, the mice were randomly divided into 5 groups (n = 9 per group) and the offspring were removed 3 h before of administration. The mice were anesthetized by Zoletil 50 (55 mg/kg body weight, WK001, Virbac, France) and held under the stereoscope in a supine position. Mice in the saline group and Z-d14CFR group were intraductal inoculated with 50 μL normal saline or 50 μL Z-d14CFR (25 μg each teat) alone to the milk duct. Mice in other groups were inoculated with 25 μL (1 × 10^5 CFU) E. coli CAU201919 suspension to the milk duct, and after 3 h of E. coli challenged, mice were treated with 25 μL saline, Z-d14CFR (25 μg) or gentamicin (10 μg), respectively, via milk duct injection. Then the mice were given the same treatment after 15 h of E. coli challenged. After 27 h of E. coli challenged, all mice were euthanized. The mammary gland tissues were collected to carry out bacterial count, histopathological examination and inflammatory factors examination.

[7] = tested on: Streptococcus suis CVCC3307; assay: MIC/MBC, microdilution broth method; type: cell-based; details: Streptococcus suis CVCC3307; kills 99.9% bacteria; NA = no activity at 1 mg/mL
Experimental: (§4) The MIC of peptides against bacteria was carried out by the microdilution broth method. The bacterial culture (OD 600 = 0.6) was diluted in 10 mM PBS to 1 × 10^6 CFU/mL. The bacterial suspension (100 μL) was added to 96-well plates, and the same volume of peptides, ampicillin or gentamicin (concentrations ranging from 0.001 to 2 mg/mL) were then added to the same 96-well plates, respectively.

[8] = tested on: Proteus vulgaris CVCC1971; assay: MIC/MBC, microdilution broth method; type: cell-based; details: Proteus vulgaris CVCC1971; kills 99.9% bacteria; NA = no activity at 1 mg/mL
Experimental: as §4

S. aureus ATCC29213 [9] = assay: Extracellular β-galactosidase assay; type: cell-based; details: 2 MIC, 4 h at 37 °C, ONPG, OD 420 nm, compared with PBS, p < 0.001
Experimental: (§5) E. coli ATCC25922 and S. aureus ATCC29213 were washed and resuspended with 10 mM PBS into OD 600 = 0.5. […] Then, 190 μL of the supernatants was incubated with 10 μL 2-nitrophenyl-β-d-galactopyranoside, ONPG (Macklin, N814742, Shanghai, China) at a final concentration of 3 mM at 37 °C for 30 min. The absorbance at 420 nm was measured to assess the level of β-galactosidase outside the cells. The bacteria treated with 10 mM PBS in absence of peptide as the negative control and treated with ultrasonication as the positive control.

E. coli ATCC25922 [10] = assay: Extracellular β-galactosidase assay; type: cell-based; details: 2 MIC, 4 h at 37 °C, ONPG, OD 420 nm, compared with PBS, p < 0.001
Experimental: as §5

MRSA ATCC33591 = assay: MIC/MBC, microdilution broth method; type: cell-based, S. aureus; details: MRSA ATCC33591; kills 99.9% bacteria; NA = no activity at 1 mg/mL
Experimental: as §4

[11] = tested on: mammalian cells (MAC-T, Hela, Vero); assay: Cytotoxicity, CCK8; type: cell-based; details: at 1 mg/mL, 24 h in DMEM with 1% FBS, CCK8, OD 450 nm, three independent experiments
Experimental: The cytotoxicity of peptides to mammalian cells was carried out according to CCK8 instructions (Beyotime, Shanghai, China). 1 × 10^4 Hela, Vero and MAC-T cells were, respectively, added in 96-well plates and cultured at 37 °C with 5% CO2 for 24 h. Then, the cells were washed thrice with 10 mM PBS to remove medium and then incubated with 100 μL peptide in DMEM with 1 % (v/v) FBS (finally concentration ranging from 1 mg/mL to 0.001 mg/mL). After incubating at 37 °C with 5% CO2 for 24 h, 10 μL CCK8 was added to the cells and then continued to be incubated at 37 °C for 4 h. CCK8 interacted with PBS without cells as the blank control. The absorbance of the mixture was measured at 450 nm and cell viability was calculated as follows: Cell viability (%) = (OD 450 peptide − OD 450 Blank)/(OD 450 PBS − OD 450 Blank) × 100%.

## CC(C)[C@@H]1NC(=O)[C@@H]2CSSC[C@H](NC(=O)[C@H](CCCNC(=N)N)NC(=O)[C@@H](NC(=O)CNC(=O)[C@@H](N)CCCNC(=N)N)CSSC[C@@H](C(=O)N[C@@H](CCCNC(=N)N)C(N)=O)NC1=O)C(=O)N[C@@H](CC(N)=O)C(=O)N[C@@H](CO)C(=O)N[C@@H](CCCCN)C(=O)N[C@@H](CO)C(=O)N[C@@H](Cc1ccccc1)C(=O)N2 [Z-d14CFR] (H-RGCRCNSKSFCVCR-NH2; disulfide 3-13, 5-11; N-terminus assumed)
[1]
  RT, retention time of peptide in HPLC: 7.820 min
[2]
  DiSC3(5) release (cytoplasmic membrane depolarization): remarkable releasing of DiSC3(5)
S. aureus ATCC29213 [3]
  PI-positive bacteria: 3.4%
E. coli ATCC25922 [4]
  PI-positive bacteria: 12.5%
S. aureus ATCC29213 [5]; 1 × 10^6 CFU/mL
  time to kill bacteria in the logarithmic phase: ≤ 4 h
S. aureus ATCC29213 [5]
  time to kill bacteria in the plateau: ≤ 16 h
E. coli ATCC25922 [6]; 1 × 10^6 CFU/mL
  time to kill bacteria in the logarithmic phase: ≤ 4 h
E. coli ATCC25922 [6]
  time to kill bacteria in the plateau: ≤ 16 h
E. coli CAU201919; Crl:CD1 mice, 1 × 10^5 CFU E. coli CAU201919 intraductal, infected only about 3.71 × 10^9, p < 0.001
  bacterial burden in the mammary gland: 3.57 × 10^8 CFU/g tissue
E. coli CAU201919
  histopathologic damage of the mammary gland (acinar wall thickening, neutrophils infiltration): obviously ameliorated
E. coli CAU201919; p < 0.001
  increase in IL-1β mRNA expression in the mammary gland: attenuated
  increase in TNF-α mRNA expression in the mammary gland: attenuated
[7]
  MBC: NA (NA) (No antimicrobial activity at 1 mg/mL)
[8]
  MBC: NA (NA) (No antimicrobial activity at 1 mg/mL)
S. aureus ATCC29213 [9]
  extracellular release of β-galactosidase: significantly induced the release of β-galactosidase
E. coli ATCC25922 [10]
  extracellular release of β-galactosidase: significantly induced the release of β-galactosidase
MRSA ATCC33591
  MBC: NA (NA) (No antimicrobial activity at 1 mg/mL)
[11]
  cytotoxicity: < 10%
